Results reported in patent US20120129884A1, “PHOTOCHEMOTHERAPEUTIC HETEROCYCLIC AGENTS HAVING ANTIPROLIFERATIVE AND ANTINEOPLASTIC ACTIVITY” (UNIVERSITA DEGLI STUDI DI PADOVA, priority 2009, published 2012).

Experiments:
[1] = tested on: T-cell leukaemia (Jurkat); experiment: Phototoxicity after UV-A irradiation, MTT test; type: cell-based, human; settings: mean ± SEM
Description: (§1) The evaluation of phototoxic activity was carried out in some human tumour cell lines: T-cell leukaemia (Jurkat), chronic myeloid leukaemia (K-562), colon adenocarcinoma (LoVo) and breast adenocarcinoma (MCF-7). Cellular survival experiments were carried out without irradiation to verify an eventual toxicity of photosensitizer in the dark, and then after two times of irradiation (10 and 15 min of UV-A, which correspond to 2.5 and 3.75 J/cm^2, respectively), using lamps which emit mainly at 365 nm. Cell survival was checked after 72 h of compound incubation or after 72 h from UVA irradiation by Mosmann's MTT reduction test (3-[4,5-dimethyltiazol-2yl] 2,5-diphenyl tetrazolium bromide), (T. Mossman, Rapid colorimetric assay for cellular growth and survival: application to proliferation and cytotoxicity assays, J. Immunol. Meths. 1983, 65, 55-63). […] In Table 2, there are GI50 values, that is the compound concentration required for 50% cell survival, for each cell line and for every time of irradiation.

[2] = tested on: breast adenocarcinoma (MCF-7); experiment: Phototoxicity after UV-A irradiation, MTT test; type: cell-based, human; settings: mean ± SEM
Description: as §1

[3] = tested on: chronic myeloid leukaemia (K-562); experiment: Phototoxicity after UV-A irradiation, MTT test; type: cell-based, human; settings: mean ± SEM
Description: as §1

[4] = tested on: colon adenocarcinoma (LoVo); experiment: Phototoxicity after UV-A irradiation, MTT test; type: cell-based, human; settings: mean ± SEM
Description: as §1

[5] = tested on: human tumour cell lines (Jurkat, K-562, LoVo, MCF-7); experiment: Phototoxicity / dark toxicity in all tested human tumour cell lines, MTT test; type: cell-based; settings: after UVA irradiation
Description: as §1

Jurkat cells = experiment: Mitochondrial membrane potential by JC-1 probe after irradiation; type: cell-based, human; settings: JC-1, 2 h from irradiation, with respect to control
Description: Other two tests were performed to have more information about the mechanism of action and to evaluate which organelles were involved in this process. […] (X. Wang, The expanding role of mitochondria in apoptosis, Gen. Develop. 2001, 15, 2922-2933). An eventual mitochondrial involvement in apoptosis induction was evaluated by such a parameter of mitochondrial dysfunction as the loss of mitochondrial membrane potential. Mitochondrial membrane potential of Jurkat cells was monitored by JC-1 probe after their irradiation in the presence of 9j, 9k and 9m (S. Salvioli, A. Ardizzoni, C. Franceschi, A. Cossarizza, JC-1, but not DiOC6(3) or rhodamine 123, is a reliable fluorescent probe to assess […] changes in intact cells: implications for studies on mitochondrial functionality during apoptosis, FEBS Lett. 1997, 411, 77-82).

plasmid (pBR322) DNA = experiment: Plasmid strand break / DNA photodamage experiments (Fpg, Endo III); type: biochemical; settings: pBR322, irradiated, Fpg and Endo III
Description: After having assessed a weak affinity toward this macromolecule in the dark by such spectroscopic techniques as linear dichroism and fluorimetric titrations, some plasmid (pBR322) strand break experiments were carried out to check an eventual DNA photodamage by compounds. The formation of open circular or linear DNA from a supercoiled plasmid DNA was monitored by the separation of the three forms using agarose gel horizontal electrophoresis. Beside the formation of frank strand breaks, oxidative damages to purine and pyrimidine bases were also evaluated, incubating the irradiated mixture with the repair enzyme Fpg (Formamidopyrimidine glycosylase) and Endo III (Endonuclase III), respectively. (B. Epe, M. Pflaum, S. Boiteux, DNA damage induced by photosensitizers in cellular and cell-free systems, Mut. Res. 1993, 299, 135-145; T. A. Ciulla, J. R. Van Camp, E. Rosenfeld, I. Kochevar, Photosensitization of single-strand breaks in pBR322 DNA by Rose Bengal, Photochem. Photobiol. 1989, 49, 293-298).

[6] = UV-A 2.5 J/cm^2, 72 h after irradiation
[7] = UV-A 3.75 J/cm^2, 72 h after irradiation
[8] = MCF-7, UV-A 2.5 J/cm^2, 72 h after irradiation
[9] = MCF-7, UV-A 3.75 J/cm^2, 72 h after irradiation
[10] = K-562, UV-A 2.5 J/cm^2, 72 h after irradiation
[11] = K-562, UV-A 3.75 J/cm^2, 72 h after irradiation
[12] = Homo sapiens, light or radiation study, 72 h, UV-A 2.5 J/cm^2, 72 h after irradiation
[13] = Homo sapiens, light or radiation study, 72 h, UV-A 3.75 J/cm^2, 72 h after irradiation
[14] = Homo sapiens, MCF7, light or radiation study, 72 h, MCF-7, UV-A 2.5 J/cm^2, 72 h after irradiation
[15] = Homo sapiens, MCF7, light or radiation study, 72 h, MCF-7, UV-A 3.75 J/cm^2, 72 h after irradiation
[16] = Homo sapiens, K562, light or radiation study, 72 h, K-562, UV-A 2.5 J/cm^2, 72 h after irradiation
[17] = Homo sapiens, K562, light or radiation study, 72 h, K-562, UV-A 3.75 J/cm^2, 72 h after irradiation

| SMILES | GI50 [1, 6] [µM] | GI50 [1, 7] [µM] | GI50 [2, 8] [µM] | GI50 [2, 9] [µM] | GI50 [3, 10] [µM] | GI50 [3, 11] [µM] | GI50 [4, 6] [µM] | GI50 [4, 7] [µM] | GI50 (phototoxic) [5] | cell percentage with collapsed mitochondrial potential (Jurkat cells) | DNA photodamage (photocleavage, oxidative damages in DNA bases) (plasmid (pBR322) DNA) | GI50 [1, 12] [µM] | GI50 [1, 13] [µM] | GI50 [2, 14] [µM] | GI50 [2, 15] [µM] | GI50 [3, 16] [µM] | GI50 [3, 17] [µM] | GI50 [4, 12] [µM] | GI50 [4, 13] [µM] |
| --- | --- | --- | --- | --- | --- | --- | --- | --- | --- | --- | --- | --- | --- | --- | --- | --- | --- | --- | --- |
| CCOC(=O)c1cc2c(n1Cc1ccc(OC)cc1)-c1[nH]c(=O)c(S(=O)(=O)c3ccccc3)cc1CC2 [Compound 9m, Ethyl 1-(p-methoxy-benzyl)-7-(phenylsulfonyl)-1,4,5,9-tetrahydro-8H-pyrrolo[3,24] quinolin-8-one-2-carboxylate] | 0.8 ± 0.1 | 0.7 ± 0.1 | 1.6 ± 0.2 | 1.4 ± 0.2 | 1 ± 0.1 | 0.9 ± 0.1 | 1.1 ± 0.1 | 1 ± 0.2 | submicromolar | increase of cell percentage with collapsed mitochondrial potential | do not induce DNA photodamage | – | – | – | – | – | – | – | – |
| COc1ccc(Cn2ccc3c2-c2[nH]c(=O)c(S(=O)(=O)c4ccccc4)cc2CC3)cc1 [Compound 9h, 1-(p-Methoxy-benzyl)-7-(phenylsulfonyl)-1,4,5,9-tetrahydro-8H-pyrrolo[3,24]quinolin-8-one] | 1.6 ± 0.2 | 1.2 ± 0.2 | 4.2 ± 0.7 | 1.8 ± 0.1 | 3.1 ± 0.4 | 2.5 ± 0.2 | 2.8 ± 0.3 | 2 ± 0.2 | – | – | – | – | – | – | – | – | – | – | – |
| N#Cc1cc2c([nH]c1=O)-c1c(ccn1S(=O)(=O)c1ccccc1)CC2 [Compound 9c, 1-(Phenylsulfonyl)-1,4,5,9-tetrahydro-8H-pyrrolo[3,2-h]quinolin-7-carbonitrile-8-one] | > 20 | > 20 | > 20 | > 20 | > 20 | > 20 | > 20 | > 20 | – | – | – | – | – | – | – | – | – | – | – |
| O=c1ccc2ccc3occc3c2o1 [Ang, angelicin, reference compound] | – | – | – | – | – | – | – | – | – | – | – | 1 ± 0.2 | 0.9 ± 0.1 | 4.4 ± 0.5 | 1.5 ± 0.2 | 1.2 ± 0.1 | 1 ± 0.1 | 3.6 ± 0.4 | 1.5 ± 0.3 |
| Cn1ccc2c1-c1[nH]c(=O)c(S(=O)(=O)c3ccccc3)cc1CC2 [Compound 9d, 1-Methyl-7-(phenylsulfonyl)-1,4,5,9-tetrahydro-8H-pyrrolo[3,2-h]quinolin-8-one] | – | – | – | – | – | – | – | – | – | – | – | > 20 | > 20 | > 20 | > 20 | > 20 | > 20 | > 20 | > 20 |
| CCOC(=O)c1cc2c(n1Cc1ccc(C)cc1)-c1[nH]c(=O)c(S(=O)(=O)c3ccccc3)cc1CC2 [Compound 9l, Ethyl 1-(p-methyl-benzyl)-7-(phenylsulfonyl)-1,4,5,9-tetrahydro-8H-pyrrolo[3,2-h] quinolin-8-one-2-carboxylate] | – | – | – | – | – | – | – | – | – | – | – | 1.5 ± 0.2 | 1.2 ± 0.1 | 1.7 ± 0.3 | 1.5 ± 0.2 | 1.2 ± 0.3 | 1 ± 0.1 | 1.6 ± 0.2 | 1 ± 0.2 |
| CCOC(=O)c1cc2c(n1Cc1ccccc1)-c1[nH]c(=O)c(S(=O)(=O)c3ccccc3)cc1CC2 [Compound 9k, Ethyl 1-benzyl-7-(phenylsulfonyl)-1,4,5,9-tetrahydro-8H-pyrrolo[3,2-h]quinolin-8-one-2-carboxylate] | – | – | – | – | – | – | – | – | submicromolar | increase of cell percentage with collapsed mitochondrial potential | do not induce DNA photodamage | 0.8 ± 0.1 | 0.6 ± 0.1 | 0.9 ± 0.1 | 0.8 ± 0.1 | 0.9 ± 0.1 | 0.6 ± 0.1 | 0.9 ± 0.1 | 0.8 ± 0.1 |
| O=c1[nH]c2c(cc1S(=O)(=O)c1ccccc1)CCc1ccn(Cc3ccccc3)c1-2 [Compound 9e, 1-Benzyl-7-(phenylsulfonyl)-1,4,5,9-tetrahydro-8H-pyrrolo[3,2-h]quinolin-8-one] | – | – | – | – | – | – | – | – | – | – | – | 1.3 ± 0.2 | 1.1 ± 0.1 | 4 ± 0.6 | 1.7 ± 0.7 | 4.8 ± 0.5 | 3.3 ± 0.5 | 2.6 ± 0.2 | 2.2 ± 0.2 |
| O=c1[nH]c2c(cc1S(=O)(=O)c1ccccc1)CCc1cc[nH]c1-2 [Compound 9b, 7-(Phenylsulfonyl)-1,4,5,9-tetrahydro-8H-pyrrolo[3,2-h]quinolin-8-one] | – | – | – | – | – | – | – | – | – | – | – | > 20 | > 20 | > 20 | > 20 | > 20 | > 20 | > 20 | > 20 |
| O=c1[nH]c2c(cc1S(=O)(=O)c1ccccc1)CCc1ccn(-c3ccccc3)c1-2 [Compound 9f, 1-Phenyl-7-(phenylsulfonyl)-1,4,5,9-tetrahydro-8H-pyrrolo[3,2-h]quinolin-8-one] | – | – | – | – | – | – | – | – | – | – | – | > 20 | > 20 | > 20 | > 20 | > 20 | > 20 | > 20 | > 20 |
| CCOC(=O)c1cc2c([nH]1)-c1[nH]c(=O)c(S(=O)(=O)c3ccccc3)cc1CC2 [Compound 9i, Ethyl 7-(phenylsulfonyl)-1,4,5,9-tetrahydro-8H-pyrrolo[3,2-h]quinolin-8-one-2-carboxylate] | – | – | – | – | – | – | – | – | – | – | – | 3.5 ± 0.4 | 2.5 ± 0.2 | 6.1 ± 0.2 | 4.3 ± 0.7 | 6.1 ± 0.2 | 5.4 ± 0.6 | 5.5 ± 0.2 | 4.6 ± 0.4 |
| CCOC(=O)c1cc2c(n1C)-c1[nH]c(=O)c(S(=O)(=O)c3ccccc3)cc1CC2 [Compound 9j, Ethyl 1-methyl-7-(phenylsulfonyl)-1,4,5,9-tetrahydro-8H-pyrrolo[3,2-h]quinolin-8-one-2-carboxylate] | – | – | – | – | – | – | – | – | submicromolar | – | do not induce DNA photodamage | 0.7 ± 0.1 | 0.5 ± 0.1 | 1.2 ± 0.1 | 1 ± 0.1 | 1 ± 0.1 | 0.9 ± 0.1 | 1.1 ± 0.1 | 1 ± 0.1 |
| O=c1[nH]c2c(cc1S(=O)(=O)c1ccccc1)CCc1ccn(S(=O)(=O)c3ccccc3)c1-2 [Compound 9a, 1,7-bis(Phenylsulfonyl)-1,4,5,9-tetrahydro-8H-pyrrolo[3,2-h]quinolin-8-one] | – | – | – | – | – | – | – | – | – | – | – | > 20 | > 20 | > 20 | > 20 | > 20 | > 20 | > 20 | > 20 |
| Cc1ccc(Cn2ccc3c2-c2[nH]c(=O)c(S(=O)(=O)c4ccccc4)cc2CC3)cc1 [Compound 9g, 1-(p-Methyl-benzyl)-7-(phenylsulfonyl)-1,4,5,9-tetrahydro-8H-pyrrolo[3,2-h]quinolin-8-one] | – | – | – | – | – | – | – | – | – | – | – | 1.6 ± 0.1 | 1.2 ± 0.2 | 3.8 ± 0.5 | 2.4 ± 0.2 | 2.7 ± 0.2 | 2.4 ± 0.1 | 2.7 ± 0.1 | 2.3 ± 0.2 |
